The source of these data is patent publication US20170095440A1, “METHOD OF TREATING CANINE PANCREATITIS” (CK9, LLC, priority 2014, published 2017).

Common to all, as to format: in vivo, dog
Data set [1] deals with dogs with suspected chronic pancreatitis. As to the kind of experiment: Serum C-reactive protein before and after treatment, clinical trial. The settings on record: for Change in serum C-reactive protein, pre- vs post-treatment: methanesulfonate. As to the method: (§1) Treatment effects on overall health status, quality of life, and clinical signs were also evaluated with serum biochemistry profiles, complete blood counts, and owner questionnaires.
(§2) Dogs were identified by screening current submissions to the Gastrointestinal Laboratory at Texas A&M indicative of pancreatitis (canine pancreas-specific lipase≧400 μg/L) using an immunoassay for measurement of canine pancreas-specific lipase in canine serum known as the spec CPL® Test (IDEXX, Laboratories). A number of potential study participants were directly referred to the investigator by veterinarians, based on positive pet-side SNAP cPL® Test (IDEXX Laboratories, Westbrook, Me., USA) results and concomitant clinical signs. After ascertaining individual suitability of a patient with the referring veterinarian, serum canine pancreas-specific lipase concentration, serum biochemistry profile, and complete blood count were evaluated or re-evaluated 12±4 days after collection of the initial sample submission to the Gastrointestinal Laboratory. Based on the assumption that consecutive canine pancreas-specific lipase elevations indicate chronic pancreatitis, enrollment was offered for patients with canine pancreas-specific lipase concentrations≧400 μg/L, serum triglyceride concentrations below 500 mg/dL, and no indication of hepatic, renal, or other organ disease. […] Owner consent was required prior to phlebotomy and for enrollment into the trial.
Twelve enrolled dogs received camostat capsules at a dosage of 4 mg/kg q 8 hrs, for a total dose of 12 mg/kg q 24 hrs. […] Individual patients were medicated for between 21 to 31 days.
Blood samples were collected before beginning the treatment and after completion of the treatment period. Complete blood count (red blood cell count, hematocrit, mean corpuscular volume, mean corpuscular hemoglobin, mean corpuscular hemoglobin concentration, differential and absolute white blood cell count, red blood cell count, hemoglobin, platelet estimate, red blood cell morphology, white blood cell morphology, and hemoparasites) was evaluated at the Texas Veterinary Medical Diagnostic Laboratory (TVMDL). A serum chemistry profile with electrolytes (glucose, blood urea nitrogen, creatinine, calcium, phosphorus, albumin, total protein, total bilirubin, alkaline phosphatase, alanine amino transferase, aspartate amino transferase, γ-glutamyl transferase, cholesterol, triglycerides, globuline, sodium, potassium, and chloride) was performed on a SIRRUS analyzer (Stanbio, Boerne, Tex., USA). […]
Pre-treatment and post-treatment results for all diagnostic tests were statistically analyzed using Prism 6 (GraphPad Software, La Jolla, Calif., USA). […]

Data set [2] has the same test system. Put plainly: Serum cTLI before and after treatment, clinical trial. As to the method:
as §1, §2
[…] […] Individual patients were medicated for between 21 to 31 days.
Blood samples were collected before beginning the treatment and after completion of the treatment period. Complete blood count (red blood cell count, hematocrit, mean corpuscular volume, mean corpuscular hemoglobin, mean corpuscular hemoglobin concentration, differential and absolute white blood cell count, red blood cell count, hemoglobin, platelet estimate, red blood cell morphology, white blood cell morphology, and hemoparasites) was evaluated at the Texas Veterinary Medical Diagnostic Laboratory (TVMDL). A serum chemistry profile with electrolytes (glucose, blood urea nitrogen, creatinine, calcium, phosphorus, albumin, total protein, total bilirubin, alkaline phosphatase, alanine amino transferase, aspartate amino transferase, γ-glutamyl transferase, cholesterol, triglycerides, globuline, sodium, potassium, and chloride) was performed on a SIRRUS analyzer (Stanbio, Boerne, Tex., USA). Serum concentrations of cPL (RI: 0-200 μg/L; Spec cPL® IDEXX Laboratories, Westbrook, Me., USA), cTLI (RI: 5.7-45.2 μg/L; Canine TLI DOUBLE ANTIBODY®, Siemens Healthcare Diagnostics, Los Angeles, Calif., USA), cobalamin (RI: 251-908 ng/L), and folate (RI: 7.7-24.4 μg/L; Immulite 2000®, Siemens Healthcare Diagnostics Inc., Deerfield, Ill., USA), canine specific C-reactive protein (RI: 0-7.6 mg/L, Tridelta Development Limited, Maynooth, CO. Kildare, Ireland), S100A12 (RI: 56-331 μg/L, Gastrointestinal Laboratory in-house radioimmunoassay), and TGF-β1 (RI: 38-72 ng/mL; Quantikine® ELISA, R&D Systems, Minneapolis, […]., USA) were performed at the Gastrointestinal Lab at Texas A&M University.
Pre-treatment and post-treatment results for all diagnostic tests were statistically analyzed using Prism 6 (GraphPad Software, La Jolla, Calif., USA). The D'Agostino-Pearson omnibus test was used to evaluate all datasets for Gaussian distribution. Groups were compared using a paired t-test for normally-distributed data sets and a Wilcoxon matched-pairs test when Gaussian distribution could not be assumed. Mean values and standard deviation are reported for data sets with Gaussian distribution. Median and minimum/maximum values are reported for data sets where Gaussian distribution could not be assumed. The significance threshold was set at p=0.05.

The next data set concerns Beagle dogs. Put plainly: Multiple-dose tolerance study, oral capsule 3 times a day for 14 days. As to the method:
The following parameters and end points were evaluated in the multiple-dose phase of this study: clinical signs, body weights, body weight changes, food consumption, electrocardiography, clinical pathology parameters (hematology, clinical chemistry, and urinalysis), and gross necropsy findings.
3 male and 3 female Beagle dogs were received from Marshall BioResources, North Rose, N.Y. The animals were examined and weighed on the day following receipt. The rising-dose phase animals were 6 months old and weighed 7.5 kg and 8.3 kg at initiation of dosing. The multiple-dose phase animals were 7 months old and weighed 7.4 kg and 7.6 kg at initiation of dosing.
For the multiple-dose phase, the test article was administered to the appropriate animals 3 times a day in an oral capsule from Days 1 to 14. The doses were administered 8 hours±30 minutes apart. The dose amount for each animal was based on the most recent body weight measurement. The first day of dosing was designated as Day 1.
Cage side observations were performed once daily, beginning during Week −1 and throughout the dosing period. During the dosing period, these observations were performed 1 to 3 hours post the first daily dose. The animals were removed from the cage and a detailed clinical observation was performed weekly, beginning during Week −1. Each animal was weighed on the day of randomization and Days 1, 4, 8, 11, and 15. A fasted weight was recorded on the day of necropsy. Food consumption was quantitatively measured for each animal daily, starting Week −1, throughout the dosing period, except for on the day of scheduled euthanasia.
Electrocardiogram (ECG) measurements were obtained from all animals using leads I, II, III, aVR, aVL, and aVF and a chart speed of 50 mm/second. The ECG measurements were obtained once on Day −1 (pretreatment) and Day 14 (approximately 3 hours post the first daily dose). Only lead II was evaluated by a board-certified veterinary cardiologist.
Blood was collected by venipuncture of the jugular vein. Urine was collected overnight by cage pan drainage. After collection, samples were transferred to the clinical pathology laboratory for processing. The animals were fasted overnight prior to scheduled clinical pathology sample collections, but had access to water ad libitum. Samples were collected according to Table 10.
Multiple-dose phase animals surviving until scheduled euthanasia were weighed, samples for evaluation of clinical pathology parameters were collected as specified above, and the animals were euthanized by sodium pentobarbital injection, followed by exsanguination. Animals were fasted (overnight) before their scheduled necropsy.
Multiple-dose phase animals were subjected to a complete necropsy examination, which included evaluation of the carcass and musculoskeletal system; all external surfaces and orifices; cranial cavity and external surfaces of the brain; and thoracic, abdominal, and pelvic cavities with their associated organs and tissues. Necropsy examinations were conducted under the supervision of a board-certified veterinary pathologist.

The mark [3] stands for this setting: Day 15 vs pretest, 200 mg/kg/day, methanesulfonate, 200 mg/kg/day.

Several values for one entry are separate records, joined by “and”; a condition that tells them apart may be missing. Identical values can stand only once. Entries after “also recorded” stand apart in the source; their conditions may differ.

With `CN(C)C(=O)COC(=O)Cc1ccc(OC(=O)c2ccc(NC(=N)N)cc2)cc1` [Camostat Mesilate, N,N-dimethylcarbamoylmethyl-4-(4-guanidinobenzoyloxy)phenylacetate methanesulfonate], the “Change in serum C-reactive protein, pre- vs post-treatment” value was “no significant difference; also recorded: did not change significantly” in data set [1] (4 mg/kg q 8 hrs, n=12) and “no statistically significant difference; also recorded: did not lead to any significant changes” in data set [1] (all treated dogs combined, n=29, trend towards a decrease). Moreover, the “Serum C-reactive protein concentration post-treatment (median)” value in data set [1] (4 mg/kg q 8 hrs, n=12, pre-treatment median 0.8, post range 0.0-9.4, p=0.1543) turned out to be 0.6 mg/L; in data set [1] (all treated dogs combined, n=29, pre-treatment median 0.2, p=0.0595), 0.1 mg/L. Further, the “Change in serum cTLI, pre- vs post-treatment” value in data set [2] (4 mg/kg q 8 hrs, n=11, methanesulfonate) is recorded as “no significant difference; also recorded: did not change significantly”; in data set [2] (8 mg/kg q 8 hrs, n=17, methanesulfonate), “no significant difference; also recorded: No significant changes”; in data set [2] (all treated dogs combined, n=28, methanesulfonate) it was “no significant difference; also recorded: No significant changes”. Moreover, the “Serum cTLI concentration post-treatment (median)” value in data set [2] (4 mg/kg q 8 hrs, n=11, pre-treatment median 22, post range 17-55, p=0.8311) was 28 µg/L; in data set [2] (8 mg/kg q 8 hrs, n=17, pre-treatment median 35, p=0.1594, methanesulfonate) it was 22 µg/L and 24 µg/L; in data set [2] (all treated dogs combined, n=28, pre-treatment median 32, post range 6-81, p=0.2098) it was 25 µg/L. The Survival result in the data set on Beagle dogs (200 mg/kg/day (66.7 mg/kg/dose 3 times a day), 14 days, 1 male and 1 female, methanesulfonate) is “No animals died; also recorded: All animals survived to scheduled euthanasia”. Also, the “Body weight, overall conclusion” value in the data set with Beagle dogs (200 mg/kg/day, 14 days) is on record as “body weight loss”. Besides, the Food consumption entry in the data set with Beagle dogs (200 mg/kg/day, 14 days) is listed as “no notable changes”. The Gross necropsy findings result in the data set with Beagle dogs (Day 15, 200 mg/kg/day) was “no gross necropsy findings”. Also, the Hematology parameters result in the data set with Beagle dogs (setting [3]) is “no toxicologically meaningful changes; also recorded: no notable changes”. The Urinalysis parameters entry in the data set on Beagle dogs (setting [3]) is given as “no toxicologically meaningful changes; also recorded: no notable changes”. In the data set on Beagle dogs (dogs, oral, 3 times per day), the “High-dose level chosen from the tolerance study” value is 200 mg/kg/day. For the same compound, the “Body weight change Days 1 to 15” value is on record as −2.7% in the data set on Beagle dogs (female, 200 mg/kg/day, 14 days) and −9.2% in the data set on Beagle dogs (male, 200 mg/kg/day, 14 days). The Clinical observations entry in the data set with Beagle dogs (female, 200 mg/kg/day, 14 days) is “clear ocular discharge and single occurrences of vomitus and mucoid feces”; in the data set on Beagle dogs (male, 200 mg/kg/day, 14 days), “thin appearance and a single occurrence of vomitus”. Besides, in the data set on Beagle dogs (male and female, Day 15, 200 mg/kg/day, methanesulfonate, 200 mg/kg/day), the “Clinical chemistry, potential test article-related changes” value was “increased creatinine and γ-glutamyl transferase; also recorded: increases in creatinine and γ-glutamyl transferase”.
